Source: US20230150970A1, “AMINOPYRIMIDINE DERIVATIVES AND THEIR USE AS ARYL HYDROCARBON RECEPTOR MODULATORS” (DONG-A ST CO., LTD., priority 2020, published 2023)
Read-outs that look alike come from different tables or passages of the source.

How the values were obtained:
AhR [1] = target: T1, AhR (Homo sapiens, UniProt P35869); assay: In Vitro Assay 3: XRE-luciferase reporter assay, agonism in human cell line (HepG2); type: cell-based; design: endogenous in cells; host or cells: HepG2; details: HepG2, tryptophan free medium, 6 hours, no agonist, read-out: Assay 3: AhR-Luc Human Agonism (EC50)
T1 sequence (P35869 11-848): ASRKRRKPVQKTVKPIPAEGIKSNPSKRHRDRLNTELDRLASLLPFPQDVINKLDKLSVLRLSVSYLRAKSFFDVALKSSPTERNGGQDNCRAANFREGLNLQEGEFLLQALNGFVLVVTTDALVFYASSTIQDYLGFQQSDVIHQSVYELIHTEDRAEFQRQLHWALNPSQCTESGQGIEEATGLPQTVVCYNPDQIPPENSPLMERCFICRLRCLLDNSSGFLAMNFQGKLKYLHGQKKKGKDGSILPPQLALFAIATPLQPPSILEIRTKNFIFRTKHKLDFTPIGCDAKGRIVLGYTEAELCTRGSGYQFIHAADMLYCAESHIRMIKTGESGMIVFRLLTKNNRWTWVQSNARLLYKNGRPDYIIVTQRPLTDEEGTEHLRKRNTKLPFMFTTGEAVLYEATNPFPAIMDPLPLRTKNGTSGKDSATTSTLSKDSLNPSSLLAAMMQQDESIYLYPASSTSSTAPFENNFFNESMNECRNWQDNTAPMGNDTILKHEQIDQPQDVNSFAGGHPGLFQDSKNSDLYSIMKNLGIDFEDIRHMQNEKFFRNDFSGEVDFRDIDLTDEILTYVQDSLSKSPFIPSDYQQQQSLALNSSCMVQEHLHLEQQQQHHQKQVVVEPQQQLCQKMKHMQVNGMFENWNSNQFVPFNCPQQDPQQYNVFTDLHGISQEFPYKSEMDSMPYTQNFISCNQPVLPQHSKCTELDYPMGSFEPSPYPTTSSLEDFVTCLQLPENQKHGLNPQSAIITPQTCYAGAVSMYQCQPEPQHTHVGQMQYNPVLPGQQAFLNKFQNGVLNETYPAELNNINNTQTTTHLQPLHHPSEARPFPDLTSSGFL
Protocol: In Vitro Assay 3: Agonism in Human Cell Line
HepG2 (human hepatoma cell line) cells co-transfected with XRE-Luc and Nano-Luc plasmids were plated in tryptophan free medium containing 1% of dialyzed fetal bovine serum and incubated overnight at 37° C. in a CO2 incubator. After 24 hours, cells were treated for 6 hours with test compounds or not. […] As a positive control, cells were incubated with TCDD.

AhR [2] = target: T1, AhR; assay: In Vitro Assay 1: XRE-luciferase reporter assay, antagonism in human cell line (HepG2)
AhR [3] = target: T2, AhR (Mus musculus, UniProt P30561); assay: In Vitro Assay 2: XRE-luciferase reporter assay, antagonism in mouse cell line (Hepa1c1c7); type: cell-based; details: 6 hours, read-out: Assay 2: AhR-Luc Mouse Antagonism (IC50)
T2 sequence (P30561 1-848): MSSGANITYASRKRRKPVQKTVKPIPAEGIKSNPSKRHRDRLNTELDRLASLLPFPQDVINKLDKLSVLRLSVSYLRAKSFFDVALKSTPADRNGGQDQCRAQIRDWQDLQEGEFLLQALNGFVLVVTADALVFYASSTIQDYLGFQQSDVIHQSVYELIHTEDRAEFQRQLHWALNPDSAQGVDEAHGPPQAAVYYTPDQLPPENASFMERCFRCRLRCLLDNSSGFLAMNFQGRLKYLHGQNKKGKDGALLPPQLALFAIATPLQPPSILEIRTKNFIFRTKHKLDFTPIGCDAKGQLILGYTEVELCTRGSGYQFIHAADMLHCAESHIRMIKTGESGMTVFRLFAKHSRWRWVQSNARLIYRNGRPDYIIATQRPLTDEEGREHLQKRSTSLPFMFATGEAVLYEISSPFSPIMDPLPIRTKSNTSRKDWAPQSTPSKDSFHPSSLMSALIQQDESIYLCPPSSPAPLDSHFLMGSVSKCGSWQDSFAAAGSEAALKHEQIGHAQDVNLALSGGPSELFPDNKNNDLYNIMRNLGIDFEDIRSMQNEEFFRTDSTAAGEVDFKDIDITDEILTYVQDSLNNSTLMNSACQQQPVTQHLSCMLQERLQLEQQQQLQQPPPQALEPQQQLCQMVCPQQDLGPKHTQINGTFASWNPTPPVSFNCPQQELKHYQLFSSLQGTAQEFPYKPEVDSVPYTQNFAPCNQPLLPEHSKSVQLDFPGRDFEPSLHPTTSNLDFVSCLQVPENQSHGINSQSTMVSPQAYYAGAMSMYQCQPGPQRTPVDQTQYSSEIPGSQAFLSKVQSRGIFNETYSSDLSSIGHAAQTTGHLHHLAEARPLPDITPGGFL
Protocol: In Vitro Assay 2: Antagonism in Mouse Cell Line
Hepa1c1c7 (murine liver cancer cell line) cells co-transfected with XRE-Luc and Nano-Luc plasmids were plated in complete medium and incubated overnight at 37° C. in a CO2 incubator. Following incubation, cells were treated with AhR activating ligands such as kynurenic acid, kynurenine (#) with or without test compounds for 6 hours.

AhR [4] = target: T1, AhR; assay: In Vitro Assay 4: endogenous AhR activity assay (CYP1A1 and CYP1B1 mRNA, qRT-PCR, HepG2 cells)
Protocol: In Vitro Assay 4: Endogenous AhR Activity Assay
HepG2 cells were seeded in 12-well plate (3×10^5 cells/well). A day after seeding, the cells were treated with TCDD (10 nM) alone or with compounds (123 nM) for 4 hours. Total RNA was extracted using Trizol (Thermo Fisher Scientific). cDNA synthesis and quantitative RT-PCR (qRT-PCR) assays were performed using PrimeScript™ RT Master Mix (TAKARA) and TB Green™ Premix Ex Taq™ II (TAKARA) in accordance with manufacturer's instruction. For the measurement of endogenous AhR activity, relative mRNA levels of CYP1A1 and CYP1B1 were quantitated relative to β-actin mRNA by the comparative Ct (ΔΔCt) method. The percent inhibitions were calculated according to:

[5] = Assay 1: AhR-Luc Human Antagonism (IC50, nM), values marked *: kynurenine 50 μM, 6 hours
[6] = values marked #: AhR activating ligand kynurenine
[7] = Assay 1: AhR-Luc Human Antagonism (IC50, nM), unmarked values: kynurenine 200 μM, 6 hours
[8] = HepG2, read-out: CYP1A1 (% Inhibition)
[9] = HepG2, read-out: CYP1B1 (% Inhibition)
[10] = unmarked values: AhR activating ligand kynurenic acid

Compound	EC50 (AhR [1]; class in brackets of the cell)	EC50 (AhR [1]; number of the cell)	IC50 (AhR [2]; [5])	IC50 (AhR [3]; [6])	IC50 (AhR [2]; [7])	inhibition at 0.123 µM (AhR [4]; [8])	also measured
CN1CCN(C2CCN(c3cc(-c4ccc(Cl)cc4)nc(-c4cccnc4)n3)CC2)CC1 [Example 92, 4-(4-chlorophenyl)-6-(4-(4-methylpiperazin-1-yl)piperidin-1-yl)-2-(pyridin-3-yl)pyrimidine]	> 10000 nM	> 30000 nM	10 to 100 nM	100 to 1000 nM	–	–	–
CS(=O)(=O)N1CCN(c2cc(-c3ccc(Cl)cc3)nc(-c3cccnc3)n2)CC1 [Example 107, 4-(4-chlorophenyl)-6-(4-(methylsulfonyl)piperazin-1-yl)-2-(pyridin-3-yl)pyrimidine]	> 10000 nM	> 30000 nM	–	10 to 100 nM	< 10 nM	–	–
CC(=O)NC1CCN(c2cc(-c3ccc(Cl)cc3)nc(-c3cccnc3)n2)C1 (centres unmarked) [Example 143, N-(1-(6-(4-chlorophenyl)-2-(pyridin-3-yl)pyrimidin-4-yl)pyrrolidin-3-yl)acetamide]	> 10000 nM	> 30000 nM	< 10 nM	100 to 1000 nM	–	–	–
CC(=O)N1CCC(CNc2cc(-c3ccc(Cl)cc3)nc(-c3cccnc3)n2)CC1 [Example 154, 1-(4-(((6-(4-chlorophenyl)-2-(pyridin-3-yl)pyrimidin-4-yl)amino)methyl)piperidin-1-yl)ethan-1-one]	> 10000 nM	> 30000 nM	< 10 nM	10 to 100 nM	–	–	–
O[C@H]1CC[C@@H](Nc2cc(-c3ccc(Cl)cc3)nc(-c3cccnc3)n2)C1 [Example 162, (1S,3R)-3-((6-(4-chlorophenyl)-2-(pyridin-3-yl)pyrimidin-4-yl)amino)cyclopentan-1-ol]	> 10000 nM	> 30000 nM	< 10 nM	100 to 1000 nM	–	–	–
COc1ccc(-c2cc(N3CCC(CO)CC3)nc(-c3cccnc3)n2)cc1 [Example 228, (1-(6-(4-methoxyphenyl)-2-(pyridin-3-yl)pyrimidin-4-yl)piperidin-4-yl)methanol]	–	–	–	–	10 to 100 nM	107%	inhibition at 0.123 µM (AhR [4]; [9]): 101%
Cc1ccc(-c2cc(N3CCC(CO)CC3)nc(-c3cccnc3)n2)cc1 [Example 229, (1-(2-(pyridin-3-yl)-6-(p-tolyl)pyrimidin-4-yl)piperidin-4-yl)methanol]	> 10000 nM	> 30000 nM	–	–	10 to 100 nM	108%	inhibition at 0.123 µM (AhR [4]; [9]): 101%
CC(=O)N1CCCN(c2cc(-c3ccc(Cl)cc3)nc(-c3cccnc3)n2)C1 [Example 232, 1-(3-(6-(4-chlorophenyl)-2-(pyridin-3-yl)pyrimidin-4-yl)tetrahydropyrimidin-1 (2H)-yl)ethan-1-one]	–	–	< 10 nM	> 1000 nM	–	100%	inhibition at 0.123 µM (AhR [4]; [9]): 99.8%
OCC1CN(c2cc(-c3ccc(Cl)cc3)nc(-c3cccnc3)n2)CC1O (centres unmarked) [Example 236, 1-(6-(4-chlorophenyl)-2-(pyridin-3-yl)pyrimidin-4-yl)-4-(hydroxymethyl)pyrrolidin-3-ol]	–	40.1 nM	< 10 nM	100 to 1000 nM	–	–	–
CC(=O)N[C@@H]1CN(c2cc(-c3ccc(Cl)cc3)nc(-c3cccnc3)n2)C[C@@H]1O [Example 243, N-((3R,4S)-1-(6-(4-chlorophenyl)-2-(pyridin-3-yl)pyrimidin-4-yl)-4-hydroxypyrrolidin-3-yl)acetamide]	–	–	–	10 to 100 nM	< 10 nM	89.7%	–
OC[C@H]1CN(c2cc(-c3ccc(C(F)(F)F)cc3)nc(-c3cccnc3)n2)C[C@@H]1O [Example 258, (3R,4R)-4-(hydroxymethyl)-1-(2-(pyridin-3-yl)-6-(4-(trifluoromethyl)phenyl)pyrimidin-4-yl)pyrrolidin-3-ol]	–	–	–	–	< 10 nM	101%	IC50 (AhR [3]; [10]): < 10 nM
OC[C@H]1CN(c2cc(-c3ccc(C(F)(F)F)cc3)nc(-c3cccnc3)n2)CCO1 [Example 280, (R)-(4-(2-(pyridin-3-yl)-6-(4-(trifluoromethyl)phenyl)pyrimidin-4-yl)morpholin-2-yl)methanol]	–	–	–	–	< 10 nM	–	IC50 (AhR [3]; [10]): 10 to 100 nM
OC[C@@H]1CCN(c2cc(-c3ccc(Cl)cc3)nc(-c3cccnc3)n2)C[C@H]1F [Example 282, ((3S,4S)-1-(6-(4-chlorophenyl)-2-(pyridin-3-yl)pyrimidin-4-yl)-3-fluoropiperidin-4-yl)methanol]	> 10000 nM	> 30000 nM	–	–	< 10 nM	–	IC50 (AhR [3]; [10]): 100 to 1000 nM
O[C@H]1CN(c2cc(-c3ccc(C(F)(F)F)cc3)nc(-c3cccnc3)n2)C[C@@H]1O [Example 283, (3S,4S)-1-(2-(pyridin-3-yl)-6-(4-(trifluoromethyl)phenyl)pyrimidin-4-yl)pyrrolidine-3,4-diol]	> 10000 nM	> 30000 nM	–	–	< 10 nM	–	IC50 (AhR [3]; [10]): 10 to 100 nM
Cn1cc(-c2nc(-c3ccc(C(F)(F)F)cc3)cc(N3CC[C@@H](C(=O)O)C3)n2)cn1 [Example 312, (R)-1-(2-(1-methyl-1H-pyrazol-4-yl)-6-(4-(trifluoromethyl)phenyl)pyrimidin-4-yl)pyrrolidine-3-carboxylic acid]	–	–	–	–	–	–	IC50 (AhR [3]; [10]): > 1000 nM
O=S(=O)(C(F)F)N1CCN(c2cc(-c3ccc(Cl)cc3)nc(-c3cccnc3)n2)CC1 [Example 339, 4-(4-chlorophenyl)-6-(4-((difluoromethyl)sulfonyl)piperazin-1-yl)-2-(pyridin-3-yl)pyrimidine]	–	–	–	–	10 to 100 nM	84.7%	–
O=S(=O)(CCO)N1CCN(c2cc(-c3ccc(C(F)(F)F)cc3)nc(-c3cccnc3)n2)CC1 [Example 349, 2-((4-(2-(pyridin-3-yl)-6-(4-(trifluoromethyl)phenyl)pyrimidin-4-yl)piperazin-1-yl)sulfonyl)ethan-1-ol]	–	–	–	–	< 10 nM	97.6%	–
(3R,4R)-1-(6-(4-chlorophenyl)-2-(pyridin-3-yl)pyrimidin-4-yl)pyrrolidine-3,4-diol [Example 230]	–	–	–	10 to 100 nM	–	–	IC50 (AhR [2]; read-out: Assay 1: AhR-Luc Human Antagonism (IC50), values marked *: kynurenine 50 μM, 6 hours): 10 to 100 nM
(3R,4S)-1-(6-(4-chlorophenyl)-2-(pyridin-3-yl)pyrimidin-4-yl)pyrrolidine-3,4-diol [Example 231]	> 10000 nM	> 30000 nM	–	10 to 100 nM	–	–	IC50 (AhR [2]; read-out: Assay 1: AhR-Luc Human Antagonism (IC50), unmarked values: kynurenine 200 μM, 6 hours): < 10 nM
